Laboratory results reported in article PMC10419975, “A Novel Betulinic Acid Analogue: Synthesis, Solubility, Antitumor Activity and Pharmacokinetic Study in Rats” (Molecules, 2023).
≈ marks a conversion by molar mass, not a printed value. Read-outs that look alike come from different tables or passages of the source.

What was measured:
[1] = system: Lewis lung carcinoma (LLC) tumor; test: Lewis lung carcinoma (LLC) subcutaneous xenograft growth model; type: in vivo, C57BL/6J mice; conditions: 0.4 mmol/kg i.p. every other day; for tumor growth inhibition rate (IR) / effect on the body weight of the mice / mean tumor volume: 18 days; for effect on the body weight of the mice: vs vehicle control; for mean tumor volume: placebo 3522.72 ± 2446.63 mm^3; for tumor weight reduced by: day 18, vs vehicle control; for mean tumor weight: day 18, vehicle control 2.86 ± 1.16 g
Experimental: The antitumor activities in vivo assay were performed as described previously with minor modifications. C57BL/6J mice (20 ± 2 g) for the xenograft animal model were purchased from the Laboratory Animal Center of Jilin University (Jilin, China). A formulation of SBE (48 mg/mL) or BA (40 mg/mL) was prepared by mixing SBE or BA with ethanol/tween 80/normal saline (v/v/v = 1/1/18). Each of the mice was inoculated subcutaneously on the back with about 1 × 10^6 Lewis lung carcinoma (LLC) tumor cells (purchased from Nanjing KeyGen Biotech. Inc., China) to obtain the xenograft animal model. Then the mice were divided into three experimental groups (n = 4) randomly on the next day after implantation. BA (200 mg/kg, i.e., 0.4 mmol/kg), SBE (240 mg/kg, i.e., 0.4 mmol/kg) or placebo was injected intraperitoneally (i.p.) every other day. The changes in tumor length, width and body weight were also observed and recorded every other day. Xenograft tumor volume (TV) and growth inhibition rate (IR) were calculated as the following equation [25]:TV = 0.5 × length × width^2; IR = (Vcontrol − Vtreat)/Vcontrol × 100%.
Mice were continually observed for 18 days, and then sacrificed on day 18 via euthanasia. The implanted tumors then were excised and weighed for subsequent analysis. All the animal handling procedures above were according to standard operating procedures approved by the institutional animal care and use committee at Northeast Forestry University.

Bad = test: Western blot analysis in Hela cells; type: cell-based; conditions: 50 μmol/L, 24 h, vs control cells
Experimental: (§1) Expression of the proteins including cleaved-cas9, Bad and Bcl-xL in Hela cells treated with BA or SBE were determined by western blot analysis. Briefly, HeLa cells (1.7 × 10^5) were seeded in a 6-well microplate and allowed to attach overnight (about 24 h). The cells were then treated with BA or SBE at a concentration of 50 μmol/L for another 24 h. After that, cells were collected and lysed in PIRA buffer (Beyotime Biotech, Beijing, China) with PhosSTOP phosphatase inhibitor cocktail tablets (Roche Diagnostics, Mannheim, Baden-Württemberg, Germany). Bradford method was used to quantify the protein concentration. The samples were denatured at 100 °C for 5 min using a block heater. Then 30 μg of the denatured samples were separated by SDS-PAGE and allowed to transfer to a PVDF membrane. After the blots were blocked and washed, they were incubated overnight at 4 °C with specific primary antibodies against cleaved-cas9, Bad, Bcl-xL and β-actin. The blotting membrane was then washed three times using TBS-tween (Tris buffer saline with 1% Tween-20, pH 7.5), and incubated with IgG secondary antibodies for another 1 h at room temperature (or incubated overnight at 4 °C), followed by the same washing procedures above. After that, the immunoreactive proteins were developed with the ECL system. Imagelab software was used to quantify proteins and β-actin was used as a loading control. The changed fold was represented by the protein expression ratio [(target protein/the β-actin)/(the control group/the β-actin)].

Bcl-xL = test: Western blot analysis in Hela cells; type: cell-based; conditions: 50 μmol/L, 24 h
Experimental: as §1

[2] = Apparent oil/water partition coefficient (water-saturated n-octanol vs phosphate buffer); type: physicochemical; conditions: for logP: water-saturated n-octanol/phosphate buffer
Experimental: (§2) Equilibrium solubility was determined by the method described above. The apparent oil-water partition coefficient (P) was calculated through the mass concentration ratio of the oil phase and water phase after balancing SBE distribution using the following equations: P = C1V1/(C0V0 − C1V1), where C0 and C1 are the initial and final concentrations of SBE in n-octanol before and after equilibration, respectively; V0 is the volume of n-octanol (water-saturated), V1 is the final oil volume after equilibration.

[3] = Equilibrium solubility in phosphate buffer at different pH; type: physicochemical; conditions: 20 °C, aqueous buffer, thermodynamic from solid
Experimental: (§3) The solubility was recorded at 20 °C in the present study. The solubility under equilibrium conditions was determined using the saturation shake-flask method with minor modifications. Briefly, an excess amount of SBE was added slowly to 1 mL of different solvents including methanol, ethanol, ethyl acetate, n-butanol, n-octanol, acetonitrile, petroleum ether as well as water. The mixture was then in crimp-sealed vials and was stirred vigorously at 20 °C for about 48 h. After that, the mixture was left to stand for an additional 24 h to reach equilibration, and then followed by centrifuging at 13,000 rpm for at least 10 min. 50 µL of the supernatant was transferred into a new tube, and evaporated to dryness under a slow nitrogen stream. The residue was then stored at −20 °C for further use or reconstituted in 1 mL of methanol. For the aqueous solution, 500 µL of the supernatant was transferred to the new tube, and the residue was reconstituted in 100 µL of methanol after dryness. After being centrifuged at 13,000 rpm for 10 min, a 20 μL aliquot was injected into the HPLC systems.
as §2, with “Equilibrium solubility and apparent oil-water partition coefficient of SBE in pH 5.0, 6.0, 6.5, 7.0, 7.4 and 8.0 phosphate buffer were also determined. Equilibrium” for “Equilibrium”

[4] = Equilibrium solubility in different solvents (saturation shake-flask, HPLC); type: physicochemical; conditions: 20 °C, thermodynamic from solid
Experimental: as §3

Bad/Bcl-xL ratio = test: Western blot analysis in Hela cells; type: cell-based; conditions: 50 μmol/L, 24 h
Experimental: as §1

cleaved-cas9 (caspase 9) = test: Western blot analysis in Hela cells; type: cell-based; conditions: 50 μmol/L, 24 h
Experimental: as §1

[5] = system: NCI-H520 (lung cancer cell line); test: In vitro cytotoxic activity, MTT assay; type: cell-based; conditions: Homo sapiens, 72 h
Experimental: (§4) The in vitro cytotoxic activities of SBE were evaluated on six different tumor cell lines including MPC2 (pancreatic cancer cell line), HT29 (colon cancer cell line), DU145 (prostate cancer cell line), NCI-H520 (lung cancer cell line), Hela (cervical cancer cell line) and 2774 (ovarian cancer cell line) using MTT assay. Cells were cultured in RPMI DMEM medium (containing 100 IU/mL G-penicillin, 100 µg/mL streptomycin and supplemented with 10% fetal calf serum) at 37 °C with 5% of CO2 in a CO2 incubator. In the MTT experiments, the cells were initially seeded in a 96-well plate with 0.1–0.2 mL (about 15 × 10^3 cells) of culture medium per well and allowed to attach overnight (about 24 h). Once attached, the cell confluence in each well reached approximately 50–60% when the drugs were added. Then the medium was replaced with fresh medium containing SBE or BA at different concentrations in four replicates. After incubating in the CO2 incubator for 3 days (about 72 h), 30 µL of MTT solution (3 mg/mL in culture medium) was added to each well and incubated for an additional 4 h. The medium was then aspirated and 150 µL of DMSO was added to each well to dissolve the formazan crystals thoroughly. The absorbance (OD value) was quantitated at 490 nm using a microplate reader (ELX800, Biotek, America). The relative growth inhibition rate (%) was calculated as (1 − mean absorbance of the sample/mean absorbance of the control) × 100%, considering the optical density of the control as 100%.

[6] = system: Hela (cervical cancer cell line); test: In vitro cytotoxic activity, MTT assay; type: cell-based; conditions: Homo sapiens, 72 h
Experimental: as §4

[7] = system: HT29 (colon cancer cell line); test: In vitro cytotoxic activity, MTT assay; type: cell-based; conditions: Homo sapiens, HT-29, 72 h
Experimental: as §4

[8] = system: MPC2 (pancreatic cancer cell line); test: In vitro cytotoxic activity, MTT assay; type: cell-based; conditions: 72 h
Experimental: as §4

[9] = system: 2774 (ovarian cancer cell line); test: In vitro cytotoxic activity, MTT assay; type: cell-based; conditions: 2774, MTT, 72 h
Experimental: as §4

[10] = system: DU145 (prostate cancer cell line); test: In vitro cytotoxic activity, MTT assay; type: cell-based; conditions: Homo sapiens, DU-145, 72 h
Experimental: as §4

[11] = set-up: method as in PMID 24095874; conditions: i.g. dose of 500 mg/kg; cited from earlier work
[12] = Pharmacokinetics of BE after i.g. dosing (previous study); type: in vivo, rat; conditions: BE i.g. 500 mg/kg vs SBE i.g. 200 mg/kg

C=C(C)[C@@H]1CC[C@]2(COC(=O)CCC(=O)O)CC[C@]3(C)C(CCC4[C@@]5(C)CC[C@H](O)C(C)(C)C5CC[C@]43C)C12 (some centres unmarked) [SBE, 28-O-succinyl betulin]
tumor growth inhibition rate (IR) [1]: about 88.69% | effect on the body weight of the mice [1]: no obvious effect | mean tumor volume [1]: 398.17 ± 384.06 mm^3 | tumor weight reduced by [1]: about 85.31% | mean tumor weight [1]: 0.42 ± 0.40 g | expression level of Bad (Bad): significantly higher | Bcl-xL levels (Bcl-xL): no significant difference | Apparent Oil/Water Partition Coefficient (P) ([2]; n-octanol/phosphate buffer pH 5): 9.68 ± 0.13 | Apparent Oil/Water Partition Coefficient (P) ([2]; n-octanol/phosphate buffer pH 6): 9.57 ± 0.30 | Apparent Oil/Water Partition Coefficient (P) ([2]; n-octanol/phosphate buffer pH 6.5): 9.75 ± 0.21 | Apparent Oil/Water Partition Coefficient (P) ([2]; n-octanol/phosphate buffer pH 7): 8.63 ± 0.19 | Apparent Oil/Water Partition Coefficient (P) ([2]; n-octanol/phosphate buffer pH 7.4): 8.14 ± 0.27 | Apparent Oil/Water Partition Coefficient (P) ([2]; n-octanol/phosphate buffer pH 8): 9.53 ± 0.23 | logP ([2]; pH 5, n-octanol/PBS, over pH 5–8, read-out: LogP values (all)): 0.91 to 0.99 | logP ([2]; pH 5, n-octanol/phosphate buffer pH 5, read-out: LogP): 0.99 ± 0.01 | logP ([2]; pH 6, n-octanol/phosphate buffer pH 6, read-out: LogP): 0.98 ± 0.01 | logP ([2]; pH 6.5, n-octanol/phosphate buffer pH 6.5, read-out: LogP): 0.99 ± 0.01 | logP ([2]; pH 7, n-octanol/phosphate buffer pH 7, read-out: LogP): 0.94 ± 0.01 | logP ([2]; pH 7.4, n-octanol/phosphate buffer pH 7.4, read-out: LogP): 0.91 ± 0.01 | logP ([2]; pH 8, n-octanol/phosphate buffer pH 8, read-out: LogP): 0.98 ± 0.01 | solubility thermodynamic at 48 h ([3]; phosphate buffer pH 5): 2.79 µg/mL (≈ 5.14 µM) | solubility thermodynamic at 48 h ([3]; phosphate buffer pH 6): 2.66 µg/mL (≈ 4.9 µM) | solubility thermodynamic at 48 h ([3]; phosphate buffer pH 6.5): 2.46 µg/mL (≈ 4.53 µM) | solubility thermodynamic at 48 h ([3]; phosphate buffer pH 7): 10.9 µg/mL (≈ 20.1 µM) | solubility thermodynamic at 48 h ([3]; phosphate buffer pH 7.4): 29.8 µg/mL (≈ 54.9 µM) | solubility thermodynamic at 48 h ([3]; phosphate buffer pH 8): 15.3 µg/mL (≈ 28.2 µM)

C=C(C)[C@@H]1CC[C@]2(C(=O)O)CC[C@]3(C)[C@H](CC[C@@H]4[C@@]5(C)CC[C@H](O)C(C)(C)[C@@H]5CC[C@]43C)[C@@H]12 [BA, 3β-hydroxy-lup-20(29)-en-28-oic acid, reference compound]
tumor growth inhibition rate (IR) [1]: ~61.93% | effect on the body weight of the mice [1]: no obvious effect | mean tumor volume [1]: 1340.91 ± 1186.99 mm^3 | tumor weight reduced by [1]: ~68.89% | mean tumor weight [1]: 0.89 ± 0.53 g | solubility thermodynamic at 48 h ([4]; acetonitrile, organic solvent or mixture): 250 ± 20 µg/mL (≈ 547 µM) | solubility thermodynamic at 48 h ([4]; ethanol, organic solvent or mixture): 4130 ± 20 µg/mL (≈ 9040 µM) | solubility thermodynamic at 48 h ([4]; ethyl acetate, organic solvent or mixture): 4470 ± 240 µg/mL (≈ 9790 µM) | solubility thermodynamic at 48 h ([4]; methanol, organic solvent or mixture): 1920 ± 440 µg/mL (≈ 4200 µM) | solubility thermodynamic at 48 h ([4]; n-butanol, organic solvent or mixture): 4140 ± 100 µg/mL (≈ 9060 µM) | solubility thermodynamic at 48 h ([4]; n-octanol, organic solvent or mixture): 6230 ± 680 µg/mL (≈ 13600 µM) | solubility thermodynamic at 48 h ([4]; petroleum ether, organic solvent or mixture): 27 ± 10 µg/mL (≈ 59.1 µM) | solubility thermodynamic at 48 h ([4]; water): 36 ± 10 µg/mL (≈ 78.8 µM) | ratio of Bad/Bcl-xL (Bad/Bcl-xL ratio): notably up-regulated | cleavage products of caspase 9 (cleaved-cas9 (caspase 9)): clearly increased | Bcl-xL levels (Bcl-xL): no significant difference | IC50 [5]: 19.6 ± 2.44 µM | IC50 [6]: 25.9 ± 1.87 µM | IC50 [7]: 32.7 ± 0.62 µM | IC50 [8]: 38.6 ± 2.91 µM | IC50 [9]: 39.5 ± 2.19 µM | IC50 [10]: 23.3 ± 2.2 µM

C=C(C)[C@@H]1CC[C@]2(CO)CC[C@]3(C)[C@H](CC[C@@H]4[C@@]5(C)CC[C@H](O)C(C)(C)[C@@H]5CC[C@]43C)[C@@H]12 [BE, lup-20(29)-en-3β, 28-diol]
AUC0−∞ [11]: 1408.3 ± 183.7 ng·h/mL | AUC0−∞ of BE relative to that of SBE [12]: about 5%
